Reference: patent publication US10993923B2, “Method for ameliorating fibrosis using 1-[4-chloro-3-(trifluoromethyl)phenyl]-3-[3-(4-cyanophenoxy)phenyl]urea” (priority 2016, dated 2021)

Key:
[1] = tested on: mouse fibroblasts (NIH3T3 cell line); assay: Cell viability assay (WST-1), NIH3T3 fibroblasts; format: cell-based; settings: FIG. 7A
Method: Murine NIH3T3 fibroblasts and human lung epithelial cells (A549 cells) were purchased from the Bioresource Collection and Research Center (Hsinchu, Taiwan). Cells were cultured in Dulbecco's modified eagle medium (DMEM) containing 10% fetal bovine serum (FBS), 100 μg/mL penicillin, 100 μg/mL streptomycin. Cells were cultured at 37° C. in a humidified atmosphere of 5% CO2 and passaged every 4 to 5 days at 1:4 ratios.
Murine NIH3T3 fibroblasts were seeded into 96-well plates (1×10^3 cells/well). To measure the cell viability and the cell proliferation, 10% WST-1 (cell proliferation reagent WST-1, Roche) was added to each well and reacted for 3 hours. The reaction was catalyzed by mitochondrial reductase in active cells and the optical density (OD) was calculated by measuring the absorbance at 450 nm via a Bio-Rad ELISA analyzer.

[2] = tested on: CCl4-induced hepatic fibrosis in mice; assay: CCl4-induced hepatic fibrosis mice prevention model; format: in vivo, male C57BL/6J mice; settings: concurrently administered with CCl4 for 4 weeks; FIG. 11A-11E
Source text: In male C57BL/6J mice, liver fibrosis was induced by carbon tetrachloride (CCl4). The mice were given peritoneal injection of carbon tetrachloride for 4 or 8 weeks every two weeks.
The mice liver samples were stored in 10% formaldehyde, dehydrated with gradient alcohol, embedded in paraffin blocks, sectioned to a thickness of 3 μm, placed on glass slides, and stained with Picrosirius Red Stain kit (ScyTek, USA), following the manufacturer's instructions. The severity of liver fibrosis was graded according to the Ishak fibrosis score. Quantitative collagen-positive area (qCPA) was determined by densitometry via ImageJ software. Hepatic hydroxyproline concentrations were measured by the hydroxyproline assay kit (Biovision, USA), following the manufacturer's instructions Immunohistochemistry was performed by the Leica BOND-MAX automatic chromatograph (Leica Biosystems, Germany), following the manufacturer's instructions.

primary mouse HSCs = assay: Cell viability (MTS), primary mouse HSCs; format: cell-based; settings: 24 or 48 hours; FIG. 14A
Method: Rat immortal hepatic stellate cell line HSC-T6 and LX2 human hepatic stellate cell line were provided by Professor Scott Friedman of Mount Sinai Hospital in New York, USA. The primary mouse HSCs were obtained via the way: after intubating the hepatic portal vein of the mouse, the cells were perfused with Leffert's and ethylene glycol bis-aminoethyl ether tetraacetic acid (EGTA) buffer in situ, and then collagenase was injected to digest the liver tissue, and then the primary mouse HSCs were isolated by Histodnz gradient. […]
HSC-T6 cells, LX2 cells or primary mouse HSCs cells were seeded in 96-well plates (5,000 cells/well) for 24 hours, and the cells were treated with various concentrations of 1-[4-chloro-3-(trifluoromethyl)phenyl]-3-[3-(4-cyanophenoxy)phenyl]urea or Sorafenib for 24 or 48 hours. The effect of each reagent on the cell viability and the cell were evaluated by CellTiter 96 AQueous one solution of 3-(4,5-dimethylthiazol-2-yl)-5-(3-carboxymethoxyphenyl)-2-(4-sulfophenyl)-2H-tetra zolium, an inner, MTS (Promega, USA). […] The proportion of apoptotic cells was mixed the early (Annexin V+/PI−) and the late (Annexin V+/PI+) apoptotic cells measured by BD FACS Verse flow cytometry (BD, USA).

LX2 cells = assay: Apoptosis (Annexin V / propidium iodide flow cytometry), LX2 cells; format: cell-based, human
Method: Rat immortal hepatic stellate cell line HSC-T6 and LX2 human hepatic stellate cell line were provided by Professor Scott Friedman of Mount Sinai Hospital in New York, USA. The primary mouse HSCs were obtained via the way: after intubating the hepatic portal vein of the mouse, the cells were perfused with […] and ethylene glycol bis-aminoethyl ether tetraacetic acid (EGTA) buffer in situ, and then collagenase was injected to digest the liver tissue, and then the primary mouse HSCs were isolated by Histodnz gradient. HSC-T6 cells were cultured in Waymouth medium; LX2 cells and primary mouse HSCs were cultured in Dulbecco's Modified Eagle Medium (DMEM) containing 10% fetal bovine serum (FBS), 100 μg/mL penicillin, 100 μg/mL streptomycin, and 2 mM L-glutamine HSC-T6 cells, LX2 cells and primary mouse HSCs were cultured in a humidified incubator containing 5% carbon dioxide at 37° C. After adding the FBS, the resting HSC is started. […] The experiment was carried out following the manufacturer's instructions, and each group was triple repetition. […] The proportion of apoptotic cells was mixed the early (Annexin V+/PI-) and the late (Annexin V+/PI+) apoptotic cells measured by BD FACS Verse flow cytometry (BD, USA). Plasmids encoding the human wild-type SHP-1 and SHP-1 mutant, in which the N-SH2 domain was […] was changed into an […]) were cloned into the pCMV6-entry vector with myc-tag. These mutants were confirmed through DNA sequencing. […] (Chicago, Ill., USA).

SHP-1 = biological target: T1, SHP-1 (Rattus norvegicus, UniProt P81718); assay: SHP-1 phosphatase activity, HSC-T6 cells; format: cell-based; settings: sorafenib 5 μM, compound 2.5 or 5 μM, FIG. 16C
T1 construct: endogenous in cells; host or cells: HSC-T6 cells
T1 sequence (P81718 whole entry): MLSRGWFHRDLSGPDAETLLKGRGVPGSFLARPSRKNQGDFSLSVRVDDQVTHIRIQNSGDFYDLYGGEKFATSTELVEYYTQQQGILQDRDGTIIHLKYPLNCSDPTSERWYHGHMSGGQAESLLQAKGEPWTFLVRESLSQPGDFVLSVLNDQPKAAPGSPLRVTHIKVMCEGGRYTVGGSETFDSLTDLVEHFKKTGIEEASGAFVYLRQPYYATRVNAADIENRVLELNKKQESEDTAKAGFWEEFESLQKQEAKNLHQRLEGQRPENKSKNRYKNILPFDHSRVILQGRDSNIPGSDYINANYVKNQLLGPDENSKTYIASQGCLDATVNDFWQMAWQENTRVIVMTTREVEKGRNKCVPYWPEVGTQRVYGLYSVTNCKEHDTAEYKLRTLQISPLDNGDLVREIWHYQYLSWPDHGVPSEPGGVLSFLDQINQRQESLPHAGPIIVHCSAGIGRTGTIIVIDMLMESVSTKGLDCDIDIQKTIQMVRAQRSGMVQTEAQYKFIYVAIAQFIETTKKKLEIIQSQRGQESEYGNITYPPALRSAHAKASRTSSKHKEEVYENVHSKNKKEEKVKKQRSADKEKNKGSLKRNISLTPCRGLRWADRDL

**Q.** For `N#Cc1ccc(Oc2cccc(NC(=O)Nc3ccc(Cl)c(C(F)(F)F)c3)c2)cc1` [1-[4-chloro-3-(trifluoromethyl)phenyl]-3-[3-(4-cyanophenoxy)phenyl]urea], which “survival rate of mouse fibroblasts” value [1] is on record?
**A.** reduced the survival rate of mouse fibroblasts (NIH3T3 cell line) in a dose-dependent manner

**Q.** What about the “hepatic fibrosis (Picrosirius Red staining, qCPA, Ishak fibrosis score, α-SMA expression, hydroxyproline concentration)” value [2] of the same compound?
**A.** significant fibrosis regression

**Q.** And the “viability of primary mouse HSCs” value (primary mouse HSCs)?
**A.** dose- and time-dependent effects to reduce the viability

**Q.** And the “apoptotic LX2 cells, ectopic expression of the vector control and wild-type SHP-1” value (LX2 cells; 5 μM, 24 hours, FIG. 17D, 17E)?
**A.** significantly increased the apoptotic LX2 cells

**Q.** What about the HSC apoptosis (LX2 cells; LX2, 24 hours, compared with sorafenib, FIG. 14B) of the same compound?
**A.** significantly increased HSC apoptosis in a dose-dependent manner

**Q.** And the “cell apoptosis and p-STAT3 downregulation in dN1 and D61A mutants” value (LX2 cells; LX2, 5 μM, 24 hours, FIG. 17E)?
**A.** insensitive

**Q.** And the “anti-proliferative activity after SHP-1 knockdown by using siRNA” value (LX2 cells; LX2, FIG. 16F)?
**A.** significantly counteracted

**Q.** And the SHP-1 activity (SHP-1)?
**A.** significantly increased the SHP-1 activity at a lower concentration
